{"source": "patent US20230303712A1", "about": "“METHODS OF TREATING GLIOBLASTOMA” (Ramot at Tel-Aviv University Ltd., priority 2020, published 2023)", "key": {"[1]": {"tested_on": "U251 and PD-GB4 GB cells", "experiment": "In vitro cytotoxicity of SELPi (annexin-FITC/PI apoptosis-necrosis staining)", "assay_type": "cell-based, human", "experimental": "Flow cytometry. For flow cytometry assays, cells were harvested using a cell scraper, and were then washed with PBS followed by additional washes with PBS supplemented with 1% BSA and 5 mM EDTA (FACS buffer). Tumor spheroids were recovered from Matrigel using Cell Recovery Solution (Corning) and washed with FACS buffer. To validate the purity of the microglia preparations, CD11b isolated cells or human microglia were incubated with TMEM119 and P2Y12-labeled antibodies for 1 h. For human TMEM119, primary antibody was unlabeled and cells were washed and incubated with secondary, Alexa 488 conjugated antibody. To assess P-Selectin and PSGL-1 expression, GB cells and microglia were seeded alone, co-cultured in a 2D petri dish, or grown as spheroids seeded in Matrigel. Cells were treated with control medium or CM for 48 h. They were then incubated with mouse anti-human P-Selectin antibody for 1 h on ice, and then were washed, and incubated with Alexa-488 labeled anti-mouse IgG binding protein for 1 h on ice. Alternatively, cells were incubated with rat anti-human PSGL antibody, and then were washed, and incubated with goat anti-rat, Alexa-488 labeled antibody for 1 h on ice. […] Fluorescence intensity was assessed using either an Attune flow cytometer (Life Technologies) or a Gallios™ flow cytometer (Beckman Coulter, USA) and the results were analyzed by Kaluza software (Beckman Coulter, USA)."}, "[2]": {"tested_on": "primary human microglia", "experiment": "Nitric oxide secretion evaluation", "assay_type": "cell-based", "settings": "added to rSELP; SELPi 0.5 µM, antibodies 2.5 µg/ml, 24 h", "experimental": "Nitric oxide secretion evaluation. Primary human/murine microglia (1 × 10^5 cells/ml) were seeded in PLL-coated plates. Twenty-four hours post-seeding, cells were treated with: 0% serum DMEM, 0% serum DMEM supplemented rSELP (1.5 µg/ml), 0% serum DMEM exposed to rSELP and SELPi (0.5 µM), 0% serum DMEM exposed to rSELP and anti-PSGL-1 neutralizing antibody (2.5 µg/ml), 0% serum DMEM exposed to rSELP and anti-CD44 neutralizing antibody (2.5 µg/ml), or 0% serum DMEM exposed to rSELP and anti-CD24 neutralizing antibody (2.5 µg/ml) for 24 h. Alternatively, macrophages were seeded in 96 well plates (5 × 10^5 cells/ml) treated with macrophages medium, macrophages medium supplemented with rSELP (3.5 µg/ml), macrophages medium supplemented with rSELP and SELPi (0.5 µM), macrophages medium supplemented with rSELP and anti-PSGL-1 neutralizing antibody (2.5 µg/ml), macrophages medium supplemented with rSELP and anti-CD44 neutralizing antibody (2.5 µg/ml) or macrophages medium supplemented with rSELP and anti-CD24 neutralizing antibody (2.5 µg/ml) for 24 h. Medium was then collected for evaluation of nitrite levels by the Total Nitric Oxide and Nitrate/Nitrite Parameter Assay Kit. Optical density was measured by a SpectraMax M5e multi-detection microplate reader system (Molecular Devices)."}, "[3]": {"experiment": "Blood chemistry and blood count after systemic SELPi", "assay_type": "in vivo, c57/BL mice", "settings": "single IV dose 16 mg/kg, healthy mice, 24 h", "experimental": "To test the effect of SELPi treatment in vivo on mice blood chemistry and blood count, c57/BL mice were injected with 16 mg/kg SELPi IV. Twenty-four hours following injecting, mice were euthanized and blood was collected. Blood samples were analyzed by AML Ltd (Herzliya, Israel). For all models, 50 × 10^3 GB cells were stereotactically injected in 5 µl at 1 µl/min flow rate. Injection coordination relative to the mouse Bregma point were: 2 mm lateral (left), 0.5 mm anterior, 3.5 mm ventral."}, "[4]": {"target": "T1, P-Selectin (Homo sapiens, UniProt P16109)", "T1 sequence (P16109 42-830)": "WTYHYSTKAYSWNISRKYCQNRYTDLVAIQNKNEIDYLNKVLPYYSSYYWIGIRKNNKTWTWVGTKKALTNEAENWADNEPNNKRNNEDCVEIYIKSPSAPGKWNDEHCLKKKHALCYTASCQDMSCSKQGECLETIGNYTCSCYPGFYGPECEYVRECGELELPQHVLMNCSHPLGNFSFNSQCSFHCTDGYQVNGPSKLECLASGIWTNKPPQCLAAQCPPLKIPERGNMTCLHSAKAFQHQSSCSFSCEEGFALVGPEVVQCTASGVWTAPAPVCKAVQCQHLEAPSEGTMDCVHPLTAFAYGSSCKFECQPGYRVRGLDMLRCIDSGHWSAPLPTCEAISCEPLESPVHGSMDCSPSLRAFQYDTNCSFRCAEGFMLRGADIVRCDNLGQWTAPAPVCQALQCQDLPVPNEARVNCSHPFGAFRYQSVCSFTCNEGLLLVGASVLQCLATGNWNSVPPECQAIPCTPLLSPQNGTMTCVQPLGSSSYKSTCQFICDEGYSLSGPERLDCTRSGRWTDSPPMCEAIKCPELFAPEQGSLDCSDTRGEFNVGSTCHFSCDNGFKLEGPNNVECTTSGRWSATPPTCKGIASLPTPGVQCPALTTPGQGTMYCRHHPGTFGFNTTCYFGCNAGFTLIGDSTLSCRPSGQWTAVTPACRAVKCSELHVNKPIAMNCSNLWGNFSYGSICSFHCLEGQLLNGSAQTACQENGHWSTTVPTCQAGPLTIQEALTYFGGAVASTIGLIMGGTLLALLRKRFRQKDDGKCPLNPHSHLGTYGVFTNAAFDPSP", "settings": "cited from earlier work"}}}
{"smiles": "COc1ccc(C2CC(c3c(O)cc(C)oc3=O)=NCCS2)c(OC)c1", "note": "(stereo not shown) [SELPi, 3-[7-(2,4-Dimethoxyphenyl)-2,3,6,7-tetrahydro-1,4-thiazepin-5-yl]-4-hydroxy-6-methyl-2H-pyran-2-one]", "values": [{"measurement": "toxicity", "setting": "[1]; 0.5 µM SELPi (working concentration)", "value": "no toxicity was observed"}, {"measurement": "percentage of apoptotic cells", "setting": "[1]; 5 and 10 µM SELPi, 72 h", "value": "slight increase in the percentage of apoptotic cells"}, {"measurement": "restoration of NO levels", "setting": "[2]", "value": "restored"}, {"measurement": "complete blood count: blood lymphocytes", "setting": "[3]", "value": "increase in the absolute amount of blood lymphocytes"}, {"measurement": "blood chemistry", "setting": "[3]; vs saline, vehicle", "value": "no significant changes"}, {"measurement": "IC50", "setting": "[4]; P-Selectin inhibition", "value": 1970, "unit": "nM"}, {"measurement": "blocking of SELP-binding", "setting": "[4]; in vitro and in vivo", "value": "block SELP-binding"}]}
